Data on 20 compounds can be found in US5955485A, “Use of fused benzothiazoles as neuroprotectants” (Janssen Pharmaceutica, N.V., priority 1995, dated 1999).

In general, IC50 refers to the concentration that inhibits the measured activity by half. For orientation: EC50 means the concentration that produces a half-maximal response. A lower EC50 goes with a more potent agent.

The test system of data set [1] is Human fibroblasts [strain NS]. Briefly: Protection of human fibroblasts against glutathione depletion (survival in cystine/methionine deficient EMEM, 48 hr). It is filed as cell-based. Particulars: Fibroblast, read-out: EC90 (concentration at which more than 90% of the fibroblasts survive 48 hours after treatment). As for the experimental part: Human fibroblasts [strain NS] were cultured in cystine/methionine deficient EMEM for 48 hr. In control cultures not receiving any treatment, all cells became necrotic. Cell death was scored by phase contrast microscopy. Table 1 summarizes the EC90 values observed with the compounds of formula (I), i.e. the concentration at which more than 90% of the fibroblasts survive 48 hours after treatment with a compound of formula (I).

For data set [2], the system named is C6 glioma cells. Briefly: Glutathione depletion-induced cell toxicity in C6 glioma cells (LDH release; protection). The settings on record: for IC50 / cytotoxicity at 10000 µM: C6 glioma; for IC50: read-out: Protection IC50; for cytotoxicity at 10000 µM: Rattus norvegicus. A general note: Release of lactate dehydrogenase indicates damage to the cell membrane.
Experimental: Cultures were maintained at 37° C. in an air/5~10% CO2, water saturated atmosphere.
After 8-24 hr, the cultures were switched to culture medium in the absence or presence of the GSH depleting compound glutamate (10 mM).
The test system of data set [3] is primary neuronal (embryonic hippocampal) cultures. Briefly: Survival-rescue of primary embryonic hippocampal cultures in vitE depleted medium (cytoplasmic LDH activity). It is filed as cell-based, rat. The settings on record: for EC50: Rattus norvegicus, mean ± SD (number of dose responses), 50% of survival in vitE supplemented medium. As for the experimental part:
Primary embryonic hippocampal cultures were prepared essentially as described previously (Pauwels, P, Van Aschouw, H. P., Peeters, L., Moeremans, M., Leysen, J. E. 1992. Chronic treatment with sabeluzole protects cultured rat brain neurons from the neurotoxic effects of excitatory amino acids. Synapse, 12:271-280). Hippocampal formations of rats at embryonic day 17 were dissected and dissociated in 0.05% trypsin, 0.1 mg/ml DNase I in DMEM (Dulbecco Modified Eagle Medium). Heat-inactivated horse serum (HS) was added to a concentration of 4%, and the cells were centrifuged, washed with DMEM, and resuspended in DMEM/Ham's F12 (3:1) containing 10% HS. The cells were plated at a density of 4×10^5 cells/cm^2 in poly L-lysine (0.001%) pre-coated multiwell-24 plates. On day 1 in culture, the medium was changed to chemically defined CDM-R12 medium (DMEM-HEPES/Ham's F12 (3:1) containing 0.26% bovine serum albumin, 30 nM sodium selenite, 3 nM 3,3',5 triiodo-L-thyronine, 0.35 μM retinol, 0.3 μM retinol acetate, 2.3 μM DL-a-tocopherol, 2.1 μM DL-α-tocopherol acetate, […] linolenic acid, 3.6 μM linoleic acid, 0.125% human transferrin, 20 nM progesterone, 57.7 nM corticosterone, 49 U/l insulin, 0.4 μM biotin, 10 μM L-carnitine, 83 μM D(+)-galactose, 3.3 μM glutathione, 10 μM ethanolamine, 0.1 mM putrescine; Romijn, H. J., van Huizen, F., Wolters, P. S. 1984. Towards an improved serum-free, chemically defined medium for long-term culturing of cerebral cortex tissue. Neurosci. Behav. Rev., 8:301-334), either with (control) or without DL-α-tocopherol (VitE) and DL-α-tocopherol acetate, in the presence or absence of test compound. […] Addition of compounds could rescue the cultures. Culture survival was measured by means of cytoplasmic LDH activity. The EC50 for survival-rescue in vitE depleted cultures refers to the concentration of the compound required to restore culture survival to 50% of the survival seen for the culture grown in vitE supplemented medium. Seven concentrations of each compound were tested in triplicate, the number of independent experiments is indicated in the table, and the mean EC50 -value ± SD was calculated (Table 2).
Primary neuronal cultures depend on the presence of the antioxidant vitE in the culture medium for survival in vitro. When vitE depleted medium is used to grow the cultures, survival drops to ±20% of control. Compounds with antioxidative properties are able to complement the lack of vitE, and as such can when added to the culture medium, rescue vitE devoid cultures. Several derivatives of formula (I) were tested at 10^-7 M and 10^-6 M in the vitE depletion test on primary neuronal cultures, and were all able to rescue survival of vitE depleted cultures to a certain extent (Table 2).

Data set [4] has as its system C6 glioma cells. Briefly: Glutathione depletion-induced intracellular peroxides in C6 glioma cells (C-DCDHF fluorescence). It is filed as cell-based. The settings on record: for Level of intracellular peroxides: 1 μM compound + glutamate 10 mM, n ≥ 3 (Table 5); for Level of intracellular peroxides / Intracellular peroxides: mean ± SEM; for Intracellular peroxides: glutamate 10 mM alone, n = 5 (Table 3). As for the experimental part: Fluorescence measurement of intracellular peroxides: Formation of intracellular peroxides was detected using 6-carboxy-2',7'-dichlorodihydrofluorescin diacetate, di(acetoxymethyl ester) (C-DCDHF, Molecular Probes). C-DCDHF was dissolved in DMSO at a concentration of 10 mM and stored at -70° C. under nitrogen. After exposure of the culture to 10 mM glutamate for 14~20 hr, the cells were loaded with 100 μM fluorophore for one hour at 37° C. Medium was aspirated off, PBS was added to the cells, and plates were read in a Cytofluor II micro plate fluorescence reader (PerSeptive Biosystems).Excitation and emission wavelength were selected with a 485/530 nm filter pair. Fluorescence intensity, expressed in relative fluorescence units (rfu)/μg cellular protein was used as index of intracellular peroxides.

The subject of data set [5] is C6 glioma cells. Briefly: GSH content in C6 glioma cell culture. It is filed as cell-based. Particulars: for GSH level: mean ± SEM, n = 3. An excerpt: The GSH content was deduced from a standard curve ranging from 0.2 to 2 nmol commercial GSH per test (ΔA/min plotted versus concentration).
Data set [6] in a line: Plasma levels. It is filed as in vivo.

Values joined by “and” are separate entries in the source; they are usually repeats but may differ in a detail not shown here. Equal values may be shown once. Read-outs that look alike come from different tables or passages of the source.

Regarding `CCCNc1ccc2c(c1)SC1=NCCN12` [Compound 1], in data set [1], the EC90 was determined as 40000 nM.
On to `CNc1ccc2c(c1)SC1=NCCN12` [Compound 2], for which, in data set [1], the EC90 stood at 200000 nM.
Regarding `c1cc2c(cc1NC1CCCCC1)SC1=NCCN12` [Compound 3], in data set [2], the half-inhibitory concentration (IC50) is 18 ± 3 nM. In data set [3], this compound had an EC50 of 120 ± 71 nM. Further, the EC90 in data set [1] worked out at 40000 nM. Moreover, the “Level of intracellular peroxides” value in data set [4] is given as 22 ± 2 rfu/μg protein.
As for `c1cc2c(cc1NC1CCCC1)SC1=NCCN12` [Compound 4], the IC50 in data set [2] is 29 ± 7 nM. Besides, the concentration for a half-maximal effect (EC50) in data set [3] amounted to 177 ± 59 nM. Moreover, the EC90 in data set [1] is 40000 nM. In addition, the “Level of intracellular peroxides” value in data set [4] was found to be 18 ± 2 rfu/μg protein.
Regarding `CC(C)Nc1ccc2c(c1)SC1=NCCN12` [Compound 5], the EC90 in data set [1] is 40000 nM.
On to `CN(C)c1ccc2c(c1)SC1=NCCN12` [Compound 6], for which the EC90 in data set [1] is 40000 nM.
In the case of `c1cc2c(cc1NC1CCCCCC1)SC1=NCCN12` [Compound 7, N-cycloheptyl-2,3dihydro-imidazo[2,1-b]benzothiazol-7-amine], in data set [5] (1 μM compound + glutamate 10 mM, in words), the “GSH level relative to solvent control” value is “about one third of the solvent control level”. Further, the GSH level in data set [5] (1 μM compound + glutamate 10 mM) stood at 242 ± 54 pmol/well. Moreover, the “protection from cell death” value in data set [2] (1 μM, glutamate 10 mM, in words) is “fully protected”. For the same compound, the IC50 in data set [2] was 9 nM; in data set [4] (individual values of 2 experiments, read-out: Inhibition of intracellular peroxides IC50), 28 nM and 71 nM. This compound also displayed an EC50 in data set [3] of 25 ± 12 nM. In addition, the “complete rescue of primary neuronal cultures grown in VitE depleted medium (concentration)” value in data set [3] (VitE depleted medium) is recorded as 10^-7 M. In data set [3] (in words), the “potency rank in vitE depletion test” value is “the most potent compound”. In addition, the “antioxidative activity relative to vitE” value in data set [3] (vitE depletion test, estimated) is “about 100 times more potent than vitE”. For the same compound, the EC90 in data set [1] worked out at 320 nM. Moreover, the “plasma levels upon reiterated or chronic administration” value in data set [6] (reiterated or chronic administration, in words) is recorded as “progressively increase until a steady state is reached”. The “period of effective plasma levels” value in data set [6] (two doses (b.i.d.)) was 24 h.
In the case of `CCNc1ccc2c(c1)SC1=NCCN12` [Compound 8], in data set [1], the EC90 was 200000 nM.
In the case of `CCC(CC)Nc1ccc2c(c1)SC1=NCCN12` [Compound 9], in data set [1], the EC90 came out at 40000 nM.
On to `CCCCNc1ccc2c(c1)SC1=NCCN12` [Compound 10], for which the EC90 in data set [1] came out at 200000 nM.
`CCC(C)Nc1ccc2c(c1)SC1=NCCN12` (stereo not shown) [Compound 11]: the EC50 in data set [3] is 224 nM. Besides, in data set [1], the EC90 turned out to be 40000 nM.
For `CCCC(C)Nc1ccc2c(c1)SC1=NCCN12` (stereo not shown) [Compound 12], the IC50 in data set [2] stood at 29 ± 14 nM. Moreover, the midpoint of the response in data set [3], the EC50, lay at 370 ± 169 nM. In addition, the EC90 in data set [1] stood at 40000 nM. Moreover, the “Level of intracellular peroxides” value in data set [4] is recorded as 24 ± 1 rfu/μg protein.
With `CCCCC(C)Nc1ccc2c(c1)SC1=NCCN12` (stereo not shown) [Compound 13], the IC50 in data set [2] amounted to 10 ± 5 nM. The compound further gave an EC50 in data set [3] of 45 nM. The EC90 in data set [1] was 8000 nM. Besides, in data set [4], the “Level of intracellular peroxides” value came to 19 ± 1 rfu/μg protein.
Take `CC(C)(C)CNc1ccc2c(c1)SC1=NCCN12` [Compound 14]: the EC90 in data set [1] is 8000 nM.
For `CCCN(CCC)c1ccc2c(c1)SC1=NCCN12` [Compound 15], the EC90 in data set [1] is 40000 nM.
With `CCCCCCNc1ccc2c(c1)SC1=NCCN12` [Compound 16, N-hexyl-2,3-dihydro-imidazo[2,1-b]benzothiazol-7-amine], the IC50 in data set [2] came to 5 ± 1 nM. In addition, the 50% effective concentration (EC50) in data set [3] was 41 ± 18 nM. For the same compound, the EC90 in data set [1] turned out to be 1600 nM. In addition, the “Level of intracellular peroxides” value in data set [4] came to 21 ± 1 rfu/μg protein.
In the case of `c1cc2c(cc1NC1C3CC4CC(C3)CC1C4)SC1=NCCN12` (stereo not shown) [Compound 17], the IC50 in data set [2] was determined as 12 ± 2 nM. Further, the EC50 in data set [3] was found to be 47 ± 19 nM. Also, the “Level of intracellular peroxides” value in data set [4] is reported as 19 ± 1 rfu/μg protein.
For `Cc1cc(NC2CCCC2)c(C(C)C)c2c1N1CCN=C1S2` [Compound 18], the IC50 in data set [2] is 25 ± 14 nM. In data set [3], the EC50 came out at 126 nM. The “Level of intracellular peroxides” value in data set [4] was determined as 19 ± 1 rfu/μg protein.
For `N[C@@H](CCC(=O)O)C(=O)O` [Glutamate, glutamate, reference compound], the GSH level in data set [5] (glutamate 10 mM alone) is 277 ± 24 pmol/well; in data set [5] (glutamate 10 mM alone, listed as glutamate), 277 pmol/well. The “reduction in intracellular GSH level versus control” value in data set [5] (glutamate 10 mM, 6~7 hr) is reported as about 3 fold. Moreover, the cytotoxicity at 10000 µM in data set [2] (48 h, read-out: LDH release, % of total) is 78 ± 7%; in data set [2] (read-out: cell death) it was about 78%. Also, the “increase in toxic intracellular peroxides” value in data set [4] (glutamate 10 mM) is recorded as about 3 fold. Further, the Intracellular peroxides in data set [4] is 205 ± 35 rfu/μg protein; in data set [4] (listed as glutamate), 205 rfu/μg protein.
On to `C[C@]12N[C@H](Cc3ccccc31)c1ccccc12` [MK801, reference compound], for which the “prevention of LDH release” value in data set [2] (NMDA antagonist, data not shown, in words) was “not prevented”.
